Experiments:
Details in all cases: 72 h
[1] = test system: myeloid leukemia patient primary cells Pat.15; experiment: cell viability (% survival relative to DMSO control); higher = less cytotoxic
How it was run: (§1)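 Mononuclear cells from patients with AML or CML were thawed, purified on Ficoll and placed in RPMI 1640 with 10% FBS at 10,000 cells/well on 384-well plates. The plates came pre-printed with 70 compounds at five tenfold concentrations spanning 1–10,000 nM, in duplicate, and cells were exposed for 72 h. CellTiter-Glo gave viability, scaled between DMSO wells and wells with 10 μM proteasome inhibitor. Where reported, area under the curve was obtained from log-logistic fits with four parameters using the drc and PharmacoGx R packages.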

[2] = test system: myeloid leukemia patient primary cells Pat.1; experiment: as above
How it was run: as §1

[3] = test system: myeloid leukemia patient primary cells Pat.2; experiment: as above
How it was run: as §1

[4] = test system: myeloid leukemia patient primary cells Pat.7; experiment: as above
How it was run: as §1

[5] = test system: LAMA-84; experiment: cell viability (% survival relative to DMSO control, bortezomib = 0%); higher = less cytotoxic
How it was run: (§2)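 Fifteen myeloid leukaemia cell lines (10 AML, 5 CML) were seeded at a density titrated to the linear growth range into 384-well plates pre-printed with compounds at 1, 10, 100, 1000 or 10000 nM in duplicate. Plates were incubated for 72 h at 37 °C with 5% CO2. Viability was then read by CellTiter-Glo luminescence. Each value is percent survival averaged over the duplicates, with vehicle set to 100% and a 10 µM positive control to 0%.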

[6] = test system: MV4-11; experiment: as above
How it was run: as §2

[7] = test system: NOMO-1; experiment: as above
How it was run: as §2

[8] = test system: HL-60; experiment: area under dose-response curve (viability, 1 nM-10 uM) (fraction (0-1)); higher = more sensitive
How it was run: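 Area under the curve, where listed, was derived from four-parameter log-logistic fits with drc and PharmacoGx. These fits used CellTiter-Glo viability from HL-60 cells in RPMI 1640 with 10% FBS, normalised to DMSO wells and wells holding 10 μM proteasome inhibitor. The full library was rescreened on 384-well plates in duplicate at five tenfold concentrations, 1–10,000 nM, with DMSO or 100 nM of one of three metabolic inhibitors, for 72 h at 37 °C, 5% CO2.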

[9] = test system: myeloid leukemia patient primary cells Pat.10; experiment: area under dose-response curve (viability, 1 nM-10 uM) (fraction (0-1)); higher = more sensitive
How it was run: as §1

[10] = test system: myeloid leukemia patient primary cells Pat.11; experiment: as above
How it was run: as §1

[11] = test system: myeloid leukemia patient primary cells Pat.12; experiment: as above
How it was run: as §1

[12] = test system: myeloid leukemia patient primary cells Pat.13; experiment: as above
How it was run: as §1

[13] = test system: myeloid leukemia patient primary cells Pat.14; experiment: as above
How it was run: as §1

[14] = test system: myeloid leukemia patient primary cells Pat.15; experiment: as above
How it was run: as §1

[15] = test system: myeloid leukemia patient primary cells Pat.1; experiment: as above
How it was run: as §1

[16] = test system: myeloid leukemia patient primary cells Pat.2; experiment: as above
How it was run: as §1

[17] = test system: myeloid leukemia patient primary cells Pat.3; experiment: as above
How it was run: as §1

[18] = test system: myeloid leukemia patient primary cells Pat.4; experiment: as above
How it was run: as §1

[19] = test system: myeloid leukemia patient primary cells Pat.5; experiment: as above
How it was run: as §1

[20] = test system: myeloid leukemia patient primary cells Pat.6; experiment: as above
How it was run: as §1

[21] = test system: myeloid leukemia patient primary cells Pat.7; experiment: as above
How it was run: as §1

[22] = test system: myeloid leukemia patient primary cells Pat.8; experiment: as above
How it was run: as §1

[23] = test system: myeloid leukemia patient primary cells Pat.9; experiment: as above
How it was run: as §1

CO[C@H]1C[C@@H]2CC[C@@H](C)[C@@](O)(O2)C(=O)C(=O)N2CCCC[C@H]2C(=O)O[C@H]([C@H](C)C[C@@H]2CC[C@@H](OCCO)[C@H](OC)C2)CC(=O)[C@H](C)/C=C(\C)[C@@H](O)[C@@H](OC)C(=O)[C@H](C)C[C@H](C)/C=C/C=C/C=C/1C [Everolimus]
Details	area under dose-response curve, co-treatment: AZD3965 100 nM	area under dose-response curve, co-treatment: DMSO vehicle	area under dose-response curve, co-treatment: GSK2194069 100 nM	area under dose-response curve, co-treatment: pictilisib 100 nM	cell viability, 1 nM [%]	cell viability, 10 nM [%]	cell viability, 100 nM [%]	cell viability, 1000 nM [%]	cell viability, 10000 nM [%]
[1]	–	–	–	–	62.3	44.6	36.8	40	22.9
[2]	–	–	–	–	88.6	56.4	74	60.2	41.2
[3]	–	–	–	–	82.6	83.8	74.4	82.3	68.2
[4]	–	–	–	–	85	68.8	99.3	79.1	2.34
[5]	–	–	–	–	72.2	52.8	62.8	53.7	37.9
[6]	–	–	–	–	62.1	64.6	61.8	53.6	22.6
[7]	–	–	–	–	79.7	63.9	72.7	60.4	56.8
[8]	< 0.0301	< 0.0301	< 0.0301	< 0.0301	–	–	–	–	–

Details	area under dose-response curve
[9]	0.604
[10]	< 0.0301
[11]	< 0.0301
[12]	0.0367
[13]	0.177
[14]	0.625
[15]	0.122
[16]	0.0353
[17]	0.746
[18]	0.413
[19]	0.808
[20]	0.0682
[21]	0.139
[22]	< 0.0301
[23]	0.319

Cc1cc2c(C(C)C)c(O)c(O)c(C=O)c2c(O)c1-c1c(C)cc2c(C(C)C)c(O)c(O)c(C=O)c2c1O [Gossypol]
Details	area under dose-response curve, co-treatment: AZD3965 100 nM	area under dose-response curve, co-treatment: DMSO vehicle	area under dose-response curve, co-treatment: GSK2194069 100 nM	area under dose-response curve, co-treatment: pictilisib 100 nM	cell viability, 1 nM [%]	cell viability, 10 nM [%]	cell viability, 100 nM [%]	cell viability, 1000 nM [%]	cell viability, 10000 nM [%]
[1]	–	–	–	–	98.2	85.9	89.7	95.7	27.3
[2]	–	–	–	–	82.1	92.5	92.2	78.8	14.3
[3]	–	–	–	–	96.6	92.2	93	80	34.6
[4]	–	–	–	–	72.1	28.8	60.8	< 0	< 0
[5]	–	–	–	–	95.2	106	104	103	0.378
[6]	–	–	–	–	97.7	91.2	93.6	104	-0.358
[7]	–	–	–	–	97.2	97.5	104	94.1	0.946
[8]	0.123	0.124	0.154	0.145	–	–	–	–	–

Details	area under dose-response curve
[9]	0.641
[10]	0.135
[11]	0.0353
[12]	0.107
[13]	0.386
[14]	0.0654
[15]	0.135
[16]	0.112
[17]	0.428
[18]	0.117
[19]	0.712
[20]	0.0898
[21]	0.476
[22]	0.123
[23]	0.803
